For orientation: Ki means a measure of affinity in units of concentration, obtained from inhibition or displacement.

The results in this text go back to patent publication US20260285855A1, “HETEROARYL DERIVATIVES AS DDRS INHIBITORS” (CHIESI FARMACEUTICI S.P.A., priority 2023, published 2026).

Test [1] deals with T1, DDR2 (Homo sapiens, UniProt Q16832).
T1 construct: purchased Life Technologies
T1 sequence (Q16832 22-855): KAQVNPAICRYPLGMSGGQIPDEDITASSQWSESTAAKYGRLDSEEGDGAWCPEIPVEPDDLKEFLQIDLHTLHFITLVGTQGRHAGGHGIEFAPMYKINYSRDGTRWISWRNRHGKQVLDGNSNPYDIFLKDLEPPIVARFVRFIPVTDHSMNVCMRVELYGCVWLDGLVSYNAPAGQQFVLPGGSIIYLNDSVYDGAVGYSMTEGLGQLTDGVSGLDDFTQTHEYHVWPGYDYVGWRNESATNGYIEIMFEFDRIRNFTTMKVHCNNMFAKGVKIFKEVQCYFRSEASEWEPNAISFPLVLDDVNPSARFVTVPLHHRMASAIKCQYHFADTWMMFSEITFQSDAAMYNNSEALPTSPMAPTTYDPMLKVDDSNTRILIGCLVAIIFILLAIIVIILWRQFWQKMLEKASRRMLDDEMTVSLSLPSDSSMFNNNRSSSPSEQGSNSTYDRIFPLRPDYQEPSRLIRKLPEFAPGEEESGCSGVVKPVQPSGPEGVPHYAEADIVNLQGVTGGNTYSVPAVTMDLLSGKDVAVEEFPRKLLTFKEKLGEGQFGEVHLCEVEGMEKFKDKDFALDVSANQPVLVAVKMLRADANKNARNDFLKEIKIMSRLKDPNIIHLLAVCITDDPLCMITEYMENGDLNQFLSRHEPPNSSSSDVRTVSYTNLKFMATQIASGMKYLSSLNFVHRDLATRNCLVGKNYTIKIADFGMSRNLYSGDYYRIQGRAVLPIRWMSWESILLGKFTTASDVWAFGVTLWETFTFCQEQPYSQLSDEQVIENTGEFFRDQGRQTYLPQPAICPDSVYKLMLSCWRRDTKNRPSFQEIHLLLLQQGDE
The test can be described thus: LanthaScreen Europium Kinase Binding assay, DDR2. The note with it: 5 nM DDR2, 10 nM Kinase Tracer 178, 1 h at rt; Ki from IC50 by Cheng-Prusoff; read-out: Ki DDR2. The method, then: (§1) DDR1 and DDR2 binding assays were performed using Life Technologies LanthaScreen™ Europium Kinase Binding assay. […] IC50 values were determined in GraphPad Prism 7.0 software, using 4 parameter model: log (inhibitor) vs. response. IC50 values were converted in Ki using the Cheng-Prusoff equation (Ki-IC50/(1+ [Tracer]/Kd).
In general terms: TR-FRET usually uses a lanthanide donor and a delayed reading to cut background.

For test [2], the target named is T2, DDR1 (Homo sapiens, UniProt Q08345).
T2 construct: purchased Carna Biosciences
T2 sequence (Q08345 19-913): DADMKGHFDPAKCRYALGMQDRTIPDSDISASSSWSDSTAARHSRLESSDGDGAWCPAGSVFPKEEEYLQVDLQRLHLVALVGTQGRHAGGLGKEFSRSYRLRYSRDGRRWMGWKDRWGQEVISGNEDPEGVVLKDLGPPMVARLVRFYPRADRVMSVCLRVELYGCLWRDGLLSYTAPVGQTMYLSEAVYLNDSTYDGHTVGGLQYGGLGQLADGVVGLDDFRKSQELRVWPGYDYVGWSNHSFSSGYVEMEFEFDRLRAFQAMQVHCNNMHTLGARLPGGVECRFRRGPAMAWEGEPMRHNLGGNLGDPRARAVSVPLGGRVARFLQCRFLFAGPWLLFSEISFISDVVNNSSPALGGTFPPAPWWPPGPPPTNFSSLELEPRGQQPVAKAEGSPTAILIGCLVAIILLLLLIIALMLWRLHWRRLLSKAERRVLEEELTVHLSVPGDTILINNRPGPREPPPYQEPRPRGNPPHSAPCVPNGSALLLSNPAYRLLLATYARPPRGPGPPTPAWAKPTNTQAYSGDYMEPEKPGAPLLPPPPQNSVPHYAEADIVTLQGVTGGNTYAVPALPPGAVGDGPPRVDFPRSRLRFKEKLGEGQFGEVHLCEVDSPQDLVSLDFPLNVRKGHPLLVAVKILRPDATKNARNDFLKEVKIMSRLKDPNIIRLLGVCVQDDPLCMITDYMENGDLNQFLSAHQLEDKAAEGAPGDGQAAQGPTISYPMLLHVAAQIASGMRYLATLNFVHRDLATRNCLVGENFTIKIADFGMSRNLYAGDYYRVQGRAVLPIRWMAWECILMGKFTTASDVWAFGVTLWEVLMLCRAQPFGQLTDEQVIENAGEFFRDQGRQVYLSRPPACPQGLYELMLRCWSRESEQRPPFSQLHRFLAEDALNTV
The test can be described thus: LanthaScreen Europium Kinase Binding assay, DDR1. The settings on record: 5 nM DDR1, 20 nM Kinase Tracer 178, 1 h at rt; Ki from IC50 by Cheng-Prusoff; read-out: Ki DDR1. The method, then: as §1

For the molecule `Cn1ccn2ncc(C(=O)N3CC4(CC(NC(=O)Nc5ccc(Cl)c(C(F)(F)F)c5)C4)C3)c12` [Example 108, 1-(4-chloro-3-(trifluoromethyl)phenyl)-3-(2-(1-methyl-1H-imidazo[1,2-b]pyrazole-7-carbonyl)-2-azaspiro[3.3]heptan-6-yl)urea], the Ki in test [1] is 5 to 25 nM; in test [2], less than 5 nM.

As to `COc1ccc(S(F)(F)(F)(F)F)cc1NC(=O)NC1CC2(C1)CN(C(=O)c1cnn3ccn(C)c13)C2` [Example 109, 1-(2-methoxy-5-(pentafluoro-16-sulfaneyl)phenyl)-3-(2-(1-methyl-1H-imidazo[1,2-b]pyrazole-7-carbonyl)-2-azaspiro[3.3]heptan-6-yl)urea], the Ki in test [1] and in test [2] was less than 5 nM in each case.

As to `O=C(Nc1cc(CO)cc(C(F)(F)F)c1)NC1CC2(C1)CN(C(=O)c1ncnc3ccsc13)C2` [Example 110, 1-(3-(hydroxymethyl)-5-(trifluoromethyl)phenyl)-3-(2-(thieno[3,2-d]pyrimidine-4-carbonyl)-2-azaspiro[3.3]heptan-6-yl)urea], the inhibition constant Ki in test [1] and in test [2] was less than 5 nM in each case.

In the case of `CN(C(=O)Nc1cc(C#N)cc(OC(F)(F)F)c1)C1CC2(C1)CN(C(=O)c1cnn3ccn(C)c13)C2` [Example 111, 3-(3-cyano-5-(trifluoromethoxy)phenyl)-1-methyl-1-(2-(1-methyl-1H-imidazo[1,2-b]pyrazole-7-carbonyl)-2-azaspiro[3.3]heptan-6-yl)urea], the inhibition constant (Ki) in test [1] and in test [2] was less than 5 nM throughout.

As to `CN(C)Cc1ccc(NC(=O)NC2CC3(C2)CN(C(=O)c2ncnc4ccsc24)C3)cc1C(F)(F)F` [Example 112, 1-(4-((dimethylamino)methyl)-3-(trifluoromethyl)phenyl)-3-(2-(thieno[3,2-d]pyrimidine-4-carbonyl)-2-azaspiro[3.3]heptan-6-yl)urea], the values for the inhibition constant Ki in test [1] and in test [2] were 5 to 25 nM and less than 5 nM, respectively.

As for `O=C(Nc1cccc(C(F)(F)F)c1)NC1CC2(C1)CN(C(=O)c1cnn3cc(CO)ccc13)C2` [Example 113, 1-(2-(6-(hydroxymethyl)pyrazolo[1,5-a]pyridine-3-carbonyl)-2-azaspiro[3.3]heptan-6-yl)-3-(3-(trifluoromethyl)phenyl)urea], the Ki in test [1] and in test [2] was less than 5 nM each time.

On to `CN(C(=O)Nc1cc(OC(F)(F)F)ccn1)C1CC2(C1)CN(C(=O)c1cnn3ccsc13)C2` [Example 114, 1-methyl-1-(2-(pyrazolo[5,1-b]thiazole-7-carbonyl)-2-azaspiro[3.3]heptan-6-yl)-3-(4-(trifluoromethoxy)pyridin-2-yl)urea], for which the inhibition constant Ki in test [1] is 5 to 25 nM; in test [2], less than 5 nM.

`O=C(Nc1cccc(C(F)(F)F)c1)NC1CC2(C1)CN(C(=O)c1ccnc3[nH]ccc13)C2` [Example 115, 1-(2-(1H-pyrrolo[2,3-b]pyridine-4-carbonyl)-2-azaspiro[3.3]heptan-6-yl)-3-(3-(trifluoromethyl)phenyl)urea]: the Ki in test [1] is 5 to 25 nM; in test [2], less than 5 nM.

In the case of `O=C(Nc1cccc(C(F)(F)F)c1)NC1CC2(C1)CN(C(=O)c1cnn3cc(CNC4COC4)ccc13)C2` [Example 116, 1-(2-(6-((oxetan-3-ylamino)methyl)pyrazolo[1,5-a]pyridine-3-carbonyl)-2-azaspiro[3.3]heptan-6-yl)-3-(3-(trifluoromethyl)phenyl)urea], the figures for the inhibitory constant (Ki) in test [1] and in test [2] were 5 to 25 nM and less than 5 nM, respectively.

Regarding `CN(C(=O)Nc1cccc(C(F)(F)C(F)(F)F)c1)C1CC2(C1)CN(C(=O)c1cnn3ccn(C)c13)C2` [Example 117, 1-methyl-1-(2-(1-methyl-1H-imidazo[1,2-b]pyrazole-7-carbonyl)-2-azaspiro[3.3]heptan-6-yl)-3-(3-(perfluoroethyl)phenyl) urea], the inhibition constant (Ki) in test [1] and in test [2] was less than 5 nM in each case.

In the case of `Cn1ccn2ncc(C(=O)N3CC4(CC(NC(=O)Nc5ccc(F)c(OC(F)(F)F)c5)C4)C3)c12` [Example 118, 1-(4-fluoro-3-(trifluoromethoxy)phenyl)-3-(2-(1-methyl-1H-imidazo[1,2-b]pyrazole-7-carbonyl)-2-azaspiro[3.3]heptan-6-yl)urea], the Ki in test [1] and in test [2] was less than 5 nM throughout.

For the molecule `Cn1ccn2ncc(C(=O)N3CC4(CC(NC(=O)Nc5cc(C#N)cc(S(F)(F)(F)(F)F)c5)C4)C3)c12` [Example 119, 1-(3-cyano-5-(pentafluoro-16-sulfaneyl)phenyl)-3-(2-(1-methyl-1H-imidazo[1,2-b]pyrazole-7-carbonyl)-2-azaspiro[3.3]heptan-6-yl)urea], the Ki in test [1] and in test [2] was less than 5 nM each time.

For the molecule `O=C(Nc1cccc(S(F)(F)(F)(F)F)c1)NC1CC2(C1)CN(C(=O)c1ccnc3[nH]ncc13)C2` [Example 120, 1-(2-(1H-pyrazolo[3,4-b]pyridine-4-carbonyl)-2-azaspiro[3.3]heptan-6-yl)-3-(3-(pentafluoro-16-sulfaneyl)phenyl)urea], the inhibition constant Ki in test [1] and in test [2] was less than 5 nM each time.

For `Cn1ccn2ncc(C(=O)N3CC4(CC(NC(=O)Nc5ccc(F)c(C(F)(F)F)c5)C4)C3)c12` [Example 121, 1-(4-fluoro-3-(trifluoromethyl)phenyl)-3-(2-(1-methyl-1H-imidazo[1,2-b]pyrazole-7-carbonyl)-2-azaspiro[3.3]heptan-6-yl)urea], the Ki in test [1] was 5 to 25 nM; in test [2], less than 5 nM.

Consider `O=C(Nc1cccc(C(F)(F)F)c1)NC1CC2(C1)CN(C(=O)c1ncnc3[nH]ncc13)C2` [Example 122, 1-(2-(1H-pyrazolo[3,4-d]pyrimidine-4-carbonyl)-2-azaspiro[3.3]heptan-6-yl)-3-(3-(trifluoromethyl)phenyl)urea], for which the Ki in test [1] and in test [2] was less than 5 nM in each case.

For the molecule `Cn1ccn2ncc(C(=O)N3CC4(CC(NC(=O)Nc5cc(C(F)(F)F)ccc5F)C4)C3)c12` [Example 123, 1-(2-fluoro-5-(trifluoromethyl)phenyl)-3-(2-(1-methyl-1H-imidazo[1,2-b]pyrazole-7-carbonyl)-2-azaspiro[3.3]heptan-6-yl)urea], the Ki in test [1] was 5 to 25 nM; in test [2], less than 5 nM.

Consider `Cn1ccn2ncc(C(=O)N3CC4(CC(NC(=O)Nc5cc(F)cc(OC(F)(F)F)c5)C4)C3)c12` [Example 124, 1-(3-fluoro-5-(trifluoromethoxy)phenyl)-3-(2-(1-methyl-1H-imidazo[1,2-b]pyrazole-7-carbonyl)-2-azaspiro[3.3]heptan-6-yl)urea], for which the Ki in test [1] and in test [2] was less than 5 nM each time.

As to `Cn1ccn2ncc(C(=O)N3CC4(CC(NC(=O)Nc5cccc(SC(F)(F)F)c5)C4)C3)c12` [Example 125, 1-(2-(1-methyl-1H-imidazo[1,2-b]pyrazole-7-carbonyl)-2-azaspiro[3.3]heptan-6-yl)-3-(3-((trifluoromethyl)thio)phenyl) urea], the inhibition constant (Ki) in test [1] and in test [2] was less than 5 nM in each case.

For the molecule `Cn1ccn2ncc(C(=O)N3CC4(CC(NC(=O)Nc5cc(C(F)(F)F)ccc5OC5COC5)C4)C3)c12` [Example 126, 1-(2-(1-methyl-1H-imidazo[1,2-b]pyrazole-7-carbonyl)-2-azaspiro[3.3]heptan-6-yl)-3-(2-(oxetan-3-yloxy)-5-(trifluoromethyl)phenyl)urea], the results for the Ki in test [1] and in test [2] were 5 to 25 nM and less than 5 nM, respectively.

As to `Cn1ccn2ncc(C(=O)N3CC4(CC(NC(=O)Nc5cccc(C(F)(F)C(F)(F)F)c5)C4)C3)c12` [Example 127, 1-(2-(1-methyl-1H-imidazo[1,2-b]pyrazole-7-carbonyl)-2-azaspiro[3.3]heptan-6-yl)-3-(3-(perfluoroethyl)phenyl)urea], the Ki in test [1] and in test [2] was less than 5 nM in each case.

On to `CN(C(=O)Nc1cccc(C(F)(F)F)c1)C1CC2(C1)CN(C(=O)c1ccnc3[nH]ncc13)C2` [Example 128, 1-(2-(1H-pyrazolo[3,4-b]pyridine-4-carbonyl)-2-azaspiro[3.3]heptan-6-yl)-1-methyl-3-(3-(trifluoromethyl)phenyl)urea], for which the inhibitory constant (Ki) in test [1] is 5 to 25 nM; in test [2], less than 5 nM.

Take `CN(C(=O)Nc1cc(C(F)(F)F)ccn1)C1CC2(C1)CN(C(=O)c1cnn3ccn(C)c13)C2` [Example 129, 1-methyl-1-(2-(1-methyl-1H-imidazo[1,2-b]pyrazole-7-carbonyl)-2-azaspiro[3.3]heptan-6-yl)-3-(4-(trifluoromethyl)pyridin-2-yl)urea]: the values for the inhibitory constant (Ki) in test [1] and in test [2] were 5 to 25 nM and less than 5 nM, respectively.
